Test results: US6071884A, “Pharmaceutical compositions and therapeutic methods” (Kirin Beer Kabushiki Kaisha, priority 1992, dated 2000)

Key:
[1] = tested on: marrow cells (mononuclear cell fraction); experiment: Proliferation-stimulating effect on marrow cell of mouse (3H-TdR uptake); assay type: cell-based, mouse (BALB/c); conditions: percentage of control, 72 h; for activity at 0.1 µg/mL: 10^-1 μg/ml; for activity at 0.01 µg/mL: 10^-2 μg/ml; for activity at 0.001 µg/mL: 10^-3 μg/ml
Method: Pharmacological Test 1: Proliferation-Stimulating Effect on Marrow Cell of Mouse
Marrow cells were prepared from the thigh bone of a 7 week old female BALB/c mouse purchased from Japan SLC Co., Ltd., and a mononuclear cell fraction (MNF) obtained by fractionation using a lympholyte-M (Cedar Lane, Ontario, Canada) was used in the following experiment.
The concentration of the MNF was adjusted to 1.5×10^6 cells/ml by using 10% FCS RPMI 1640 (Nissui Pharmaceutical Co., Ltd., Tokyo, Japan) as a culture medium. 10 μl/well of a sample with a predetermined concentration and 100 μl/well of the above-prepared MNF were placed on a round-bottomed 96 well plate, and incubated under the conditions of 37° C. and 5% CO2 for 72 hours. Thereafter, 0.5 μCi/well of ^3 H-thymidine (^3 H-TDR) was added. After 8 hour incubation, the cells were harvested, and the amount of the 3H-TdR taken in the nuclei was measured by a liquid scintillation counter.

[2] = Life-span-increasing effect on irradiation of a lethal dose of radiation; assay type: in vivo, mouse (BDF1); conditions: 10 mice/group, 9 Gy X-ray, 0.1 mg/kg i.v. days 0, 4, 8
Method: Pharmacological Test 4: Life-Span-Increasing Effect on Irradiation of a Lethal Dose of Radiation
An experiment was carried out by using 6 week old female BDF1 mice purchased from Japan SLC Co., Ltd., with 10 mice made one group.
The entire bodies of the entire body of the mice were irradiated with 9 Gy of X-rays by using a Hitachi X-ray irradiator (MBR-1520R), and the day on which the X-ray was irradiated was referred to as "day 0".

blood platelets [3] = experiment: Thrombocytopenia-inhibiting effect in X-ray-irradiated mice; assay type: in vivo, mouse (BDF1); conditions: 10 days after 5 Gy X-ray; 0.1 mg/kg i.v. within 2 h; mean ± SD; vehicle per series 10.3, 6.8, 6.7; non-treatment 68.2, 96.9, 73.0
Method: Pharmacological Test 5: Thromboclytopenia-Inhibiting Effect
The thrombocytopenia-inhibiting effect of each sample upon an X-ray-irradiated mouser which is one of models with a decreased number of blood platelets was examined.
An experiment was carried out by using 6 week old female BDF1 mice purchased from Japan SLC Co., Ltd., with 6 mice made one group.
5 Gy of X ray was irradiated to the entire body of the mice by a Hitachi X-ray irradiator CMBR-1520R). Within 2 hours after the irradiation, each sample was administered to the caudal vein of the mice at an amount of 0.1 mg/kg.
(§1) After 10 days, blood was collected from the fundus vein of the mice, and the number of blood platelets was measured by a sequential multi-channel hemocytometer E-2500/cs (Toa Iyo Denshi Kabushiki Kaisha). The number of blood platelets of the non-treated group, that of the medium-administered group, and that of the sample-administered group are shown in Table 5.

blood platelets [4] = experiment: Blood-platelet-increasing effect upon normal mouse; assay type: in vivo, mouse (BDF1); conditions: normal mice; 6 days after 0.1 mg/kg i.v.; mean ± SD; vehicle per series 58.2, 63.0, 71.1
Method: Pharmacological Test 6: Blood-Platelet-Increasing Effect upon Mouse
An experiment was carried out by using 6 week old female BDF1 mice purchased from Japan SLC Co., Ltd., with 5 mice made one group.
as §1, with “Each sample was administered to the caudal vein of the mice at a dose of 0.1 mg/kg. After” for “After”, “6” for “10”, “vehicle-administered” for “non-treated group, that of the medium-administered”, “6.” for “5.”

[5] = day 10, controls per series 10, 10, 10, 10, 10, 8
[6] = day 15, controls per series 8, 9, 5, 5, 7, 1
[7] = day 20, controls per series 4, 5, 1, 2, 3, 0
[8] = day 25, controls per series 3, 3, 0, 0, 2, 0
[9] = day 30, controls per series 1, 1, 0, 0, 0, 0

| Compound | activity at 0.1 µg/mL [1] | activity at 0.01 µg/mL [1] | activity at 0.001 µg/mL [1] | Number of Surviving Mice [2, 5] | Number of Surviving Mice [2, 6] | Number of Surviving Mice [2, 7] | Number of Surviving Mice [2, 8] | Number of Surviving Mice [2, 9] | Number of Surviving Mice ([2]; day 35, all controls 0) | Number of Surviving Mice ([2]; day 40, all controls 0) | Number of Blood Platelets (blood platelets [3]) | Number of Blood Platelets (blood platelets [4]) |
| --- | --- | --- | --- | --- | --- | --- | --- | --- | --- | --- | --- | --- |
| CCCCCCCCCCCCCCCCCCCCCCCC[C@@H](O)C(=O)N[C@@H](CO[C@H]1O[C@H](CO)[C@H](O)[C@H](O)[C@H]1O)[C@H](O)[C@H](O)CCCCCCCCCCCCCCC [Compound 26, (2S,3S,4R)-1-(α-D-galactopyranosyloxy)-2-[(R)-2-hydroxyhexacosanoylamino]-3,4-nonadecanediol] | 271% | 183% | 156% | 10 mice | 9 mice | 9 mice | 8 mice | 8 mice | 8 mice | 8 mice | 19.8 ± 4.3 × 10^4 /μl | 113.7 ± 7.1 × 10^4 /μl |
| CCCCCCCCCCCCCCC[C@@H](O)[C@H](CO[C@H]1O[C@H](CO)[C@H](O)[C@H](O)[C@H]1O)NC(C)=O [Compound 8, (2S,3R)-2-acetamino-1-(α-D-galactopyranosyloxy)-3-octadecanol] | 232% | 81% | 129% | 10 mice | 5 mice | 1 mice | 1 mice | 1 mice | 1 mice | 1 mice | 8.1 ± 2.6 × 10^4 /μl | 96.6 ± 3.2 × 10^4 /μl |
| CCCCCCCCCCCCCC(=O)N[C@@H](CO[C@H]1O[C@H](CO)[C@H](O)[C@H](O)[C@H]1O)[C@H](O)CCCCCCCCCCCCC [Compound 10, (2S,3R)-1-(α-D-galactopyranosyloxy)-2-tetradecanoylamino-3-hexadecanol] | 356% | 90% | 77% | 10 mice | 8 mice | 7 mice | 7 mice | 7 mice | 7 mice | 7 mice | 19.6 ± 4.0 × 10^4 /μl | 87.2 ± 4.0 × 10^4 /μl |
| CCCCCCCCCCCCCCCCCCCCCCCC(=O)N[C@@H](CO[C@H]1O[C@H](CO)[C@H](O)[C@H](O)[C@H]1O)[C@H](O)[C@H](O)CCCCCCC [Compound 19, (2S,3S,4R)-1-(α-D-galactopyranosyloxy)-2-tetracosanoylamino-3,4-undecanediol] | 499% | 207% | 173% | 10 mice | 10 mice | 10 mice | 10 mice | 10 mice | 10 mice | 10 mice | 23.4 ± 4.2 × 10^4 /μl | 106.4 ± 12.7 × 10^4 /μl |
| CCCCCCCCCCCCCCCCCC(=O)N[C@@H](CO[C@H]1O[C@H](CO)[C@H](O)[C@H](O)[C@H]1O)[C@H](O)CCCCCCCCCCCCCCC [Compound 4, (2S,3R)-1-(α-D-galactopyranosyloxy)-2-octadecanoylamino-3-octadecanol] | 297% | 75% | 151% | 10 mice | 10 mice | 8 mice | 7 mice | 5 mice | 5 mice | 5 mice | 14.3 ± 4.7 × 10^4 /μl | 83.1 ± 6.5 × 10^4 /μl |
